Source: patent US20250223301A1, “KINASE INHIBITORS, PREPARATION METHODS AND USES THEREOF” (InventisBio Co., Ltd., priority 2022, published 2025)

Legend:
Jurkat cells = test: Jurkat IL-2 assay; assay type: cell-based; conditions: Homo sapiens, anti-CD3/CD28 stimulation overnight, IL-2 level
Protocol: Jurkat cells (ATCC) were cultured in RPMI-1640 medium supplemented with 10% FBS. In a 96-well plate, −250,000 cells in 130 uL were added to each assay well. Ten microliter compound solution (5 uM to 2.3 nM, 8 points with 3-fold dilution) were added to cells in each well and incubated for 60 minutes at 37° C. Then 10 uL anti-CD3/CD28 antibody (Catalog #10991, Stemcell) were added and incubated overnight at 37° C. After the incubation, 16 uL supernatants were transferred into a new 384-well white assay plate for cytokine analysis. IL-2 was quantified using Human IL-2 kit (Catalog #62HIL02PEG, Cisbio) as described in the manufacturer manual.
(§1) X is log of compound concentration, Y is the IL-2 concentration, increasing as X increases.

PBMC = test: Human PBMC IL-2 assay; assay type: cell-based; conditions: anti-CD3/CD28 stimulation overnight, IL-2 level
Protocol: PBMC (frozen) obtained from health donor were thawed in RPMI-1640 medium with 10% FBS and incubated for 4 h at 37° C. In a 96-well plate, −200,000 PBMC cells in 160 uL were added to each assay well. Ten microliter compound solution (10 uM to 0.6 nM, 8 points with 4-fold dilution) were added to cells in each well and incubated for 60 minutes at 37° C. Then 30 uL anti-CD3/CD28 antibody (Catalog #10991, Stemcell) were added to cells and incubated overnight at 37° C. After the incubation, 16 uL supernatants were transferred into a new 384-well white assay plate for cytokine analysis. IL-2 level was quantified using Human IL-2 kit (Catalog #62HIL02PEG, Cisbio) as described in the manufacturer manual.
as §1

Row | SMILES | EC50 (Jurkat cells) [µM] | EC50 (PBMC) [µM]
1 | C[C@@H]1CN2c3c(c(=O)n(C)c4ccc(C#N)nc34)OC[C@@H]2CN1[C@H](C)c1ccc(C(F)(F)F)cc1 (stereo in doubt) [Compound 222] | 0.144 | 0.154
2 | CC[C@@H](c1ccc(C(F)(F)F)c(Cl)c1)N1C[C@H]2COc3c(c4nc(C#N)ccc4n(C)c3=O)N2C[C@H]1C (stereo in doubt) [Compound 324] | 0.095 | 0.049
3 | C[C@@H]1CN2c3c(c(=O)n(C)c4ccc(C#N)nc34)OC[C@@H]2CN1[C@@H](C)c1ccc(Cl)cc1F (stereo in doubt) [Compound 275] | 0.051 | 0.023
4 | CC[C@@H]1CN2c3c(c(=O)n(C)c4ccc(C#N)nc34)OC[C@@H]2CN1[C@@H](CC)c1ccc(OC)cc1F (stereo in doubt) [Compound 232] | 0.047 | 0.019
5 | CC[C@@H]1CN2c3c(c(=O)n(C)c4ccc(C#N)nc34)OC[C@@H]2CN1[C@@H](CC)c1c(F)ccc(F)c1F (stereo in doubt) [Compound 170] | 0.246 | 0.186
6 | CC[C@@H]1CN2c3c(c(=O)n(C)c4ccc(C#N)nc34)OC[C@@H]2CN1[C@@H](CC)c1ccc(OC(F)(F)F)cc1 (stereo in doubt) [Compound 212] | 0.011 | 0.039
7 | CC[C@@H]1CN2c3c(c(=O)n(C)c4ccc(C#N)nc34)OC[C@@H]2CN1[C@@H](CC)c1ccc(F)c(C)c1 (stereo in doubt) [Compound 337] | 0.012 | 0.016
8 | CC[C@@H]1CN2c3c(c(=O)n(C)c4ccc(C#N)nc34)OC[C@@H]2CN1[C@H](CC)c1ccc(C(F)(F)F)c(Cl)c1 (stereo in doubt) [Compound 245] | 0.189 | 0.314
9 | CC[C@@H]1CN2c3c(c(=O)n(C)c4ccc(C#N)nc34)OC[C@@H]2CN1[C@H](CC)c1ccc(Cl)cc1 (stereo in doubt) [Compound 243] | 0.473 | 0.212
10 | CC[C@@H](c1ccc(Cl)c(F)c1)N1C[C@H]2COc3c(c4nc(C#N)ccc4n(C)c3=O)N2C[C@H]1C (stereo in doubt) [Compound 281] | 0.118 | 0.049
11 | C[C@@H]1CN2c3c(c(=O)n(C)c4ccc(C#N)nc34)OC[C@@H]2CN1[C@@H](C)c1ccc(F)c(Cl)c1 (stereo in doubt) [Compound 260] | 0.069 | 0.089
12 | CC[C@@H]1CN2c3c(c(=O)n(C)c4ccc(C#N)cc34)OC[C@@H]2CN1[C@H](CC)c1ccc(C(F)(F)F)cc1 [Compound 211] | 0.485 | 0.175
13 | CC[C@H](c1ccc(Cl)c(C(F)(F)F)c1)N1C[C@H]2COc3c(c4nc(C#N)ccc4n(C)c3=O)N2C[C@H]1C (stereo in doubt) [Compound 317] | 0.021 | 0.105
14 | CC[C@@H]1CN2c3c(c(=O)n(C)c4ccc(C#N)nc34)OC[C@@H]2CN1[C@@H](c1ccc(C(F)(F)F)cc1)C(C)C [Compound 272] | 0.256 | 0.325
15 | CC[C@@H](c1ccc(C(F)(F)F)c(F)c1)N1C[C@H]2COc3c(c4nc(C#N)ccc4n(C)c3=O)N2C[C@H]1C (stereo in doubt) [Compound 329] | 0.097 | 0.054

The remaining molecules from weak to strong by EC50 (Jurkat cells), led by results:

Row | EC50 (Jurkat cells) [µM] | SMILES | EC50 (PBMC) [µM]
16 | 1.28 | CC[C@@H]1CN2c3c(c(=O)n(C)c4ccc(C#N)nc34)OC[C@@H]2CN1[C@H](CC)c1ccc(F)c(Cl)c1 (stereo in doubt) [Compound 196] | 0.846
17 | 0.707 | CC[C@H]1CN([C@@H](C)c2ccc(C(F)(F)F)cc2)[C@H](C)CN1c1nc2nncn2c2ccc(C#N)nc12 (stereo in doubt) [Compound 316] | 0.742
18 | 0.483 | CC[C@@H]1CN2c3c(c(=O)n(C)c4ccc(C#N)nc34)OC[C@@H]2CN1[C@H](CC)c1ccc(C(F)(F)F)cc1F (stereo in doubt) [Compound 143] | 0.178
19 | 0.359 | CC[C@@H](c1ccc(Cl)c(C(F)(F)F)c1)N1C[C@H]2COc3c(c4nc(C#N)ccc4n(C)c3=O)N2C[C@H]1C (stereo in doubt) [Compound 318] | 0.349
20 | 0.339 | CC[C@H](c1ccc(C(F)(F)F)c(F)c1)N1C[C@H]2COc3c(c4nc(C#N)ccc4n(C)c3=O)N2C[C@H]1C (stereo in doubt) [Compound 328] | 0.302
21 | 0.125 | CC[C@@H]1CN2c3c(c(=O)n(C)c4ccc(C#N)nc34)OC[C@@H]2CN1[C@H](CC)c1ccc(C)c(Cl)c1 (stereo in doubt) [Compound 342] | 0.28
22 | 0.1 | CC[C@@H]1CN2c3c(c(=O)n(C)c4ccc(C#N)nc34)OC[C@@H]2CN1[C@H](CC)c1ccc(C#N)cc1 (stereo in doubt) [Compound 162] | 0.786
23 | 0.098 | CC[C@@H]1CN2c3c(c(=O)n(C)c4ccc(C#N)nc34)OC[C@@H]2CN1[C@H](CO)c1ccc(C(F)(F)F)cc1 (stereo in doubt) [Compound 236] | 0.583
24 | 0.091 | CC[C@@H]1CN2c3c(c(=O)n(C)c4ccc(C#N)nc34)OC[C@@H]2CN1[C@@H](c1ccc(C(F)(F)F)cc1)C1CC1 [Compound 346] | 0.138
25 | 0.07 | CC[C@H]1CN([C@@H](CC)c2nc(C(F)(F)F)no2)[C@H](CC)CN1c1nc2nncn2c2ccc(C#N)nc12 (stereo in doubt) [Compound 135] | 0.069
26 | 0.064 | CC[C@@H]1CN2c3c(c(=O)n(C)c4ccc(C#N)nc34)OC[C@@H]2CN1[C@@H](CC)c1ccc(Cl)c(C(F)(F)F)c1 (stereo in doubt) [Compound 327] | 0.103
27 | 0.045 | CC[C@@H]1CN2c3c(c(=O)n(C)c4ccc(C#N)nc34)OC[C@@H]2CN1[C@@H](CC)c1ccc(C)c(Cl)c1 (stereo in doubt) [Compound 343] | 0.018
28 | 0.043 | CCC[C@@H](c1ccc(C(F)(F)F)cc1)N1C[C@H]2COc3c(c4nc(C#N)ccc4n(C)c3=O)N2C[C@H]1CC (stereo in doubt) [Compound 153] | 0.085
29 | 0.042 | CC[C@H]1CN([C@H](c2ccc(SC(F)(F)F)cc2)C2CC2)[C@H](CC)CN1c1nc2nncn2c2ccc(C#N)nc12 (stereo in doubt) [Compound 168] | 0.032
30 | 0.036 | CC[C@@H](c1ccc(C(F)(F)F)cc1F)N1C[C@H]2COc3c(c4nc(C#N)ccc4n(C)c3=O)N2C[C@H]1C (stereo in doubt) [Compound 306] | 0.03
31 | 0.034 | C[C@@H]1CN2c3c(c(=O)n(C)c4ccc(C#N)nc34)OC[C@@H]2CN1[C@@H](C)c1ccc(C(C)(F)F)cc1 (stereo in doubt) [Compound 304] | 0.024
32 | 0.016 | CC[C@@H]1CN2c3c(c(=O)n(C)c4ccc(C#N)nc34)OC[C@@H]2CN1[C@@H](CC)c1ccc(C(C)(F)F)cc1 [Compound 289] | 0.007
33 | 0.01 | CC[C@@H]1CN2c3c(c(=O)n(C)c4ccc(C#N)nc34)OC[C@@H]2CN1[C@@H](CC)c1ccc(C(F)F)cc1 (stereo in doubt) [Compound 291] | 0.011
34 | 0.006 | CC[C@@H]1CN2c3c(c(=O)n(C)c4ccc(C#N)nc34)OC[C@@H]2CN1[C@@H](CC)c1ccc(Cl)c(C)c1 (stereo in doubt) [Compound 341] | 0.013
